This is an account of results in ChEMBL document CHEMBL1201862, “PubChem BioAssay data set” (2004).

Assay [1] deals with T1, Apoptotic protease-activating factor 1 (Homo sapiens, UniProt O14727).
T1 sequence (O14727 whole entry): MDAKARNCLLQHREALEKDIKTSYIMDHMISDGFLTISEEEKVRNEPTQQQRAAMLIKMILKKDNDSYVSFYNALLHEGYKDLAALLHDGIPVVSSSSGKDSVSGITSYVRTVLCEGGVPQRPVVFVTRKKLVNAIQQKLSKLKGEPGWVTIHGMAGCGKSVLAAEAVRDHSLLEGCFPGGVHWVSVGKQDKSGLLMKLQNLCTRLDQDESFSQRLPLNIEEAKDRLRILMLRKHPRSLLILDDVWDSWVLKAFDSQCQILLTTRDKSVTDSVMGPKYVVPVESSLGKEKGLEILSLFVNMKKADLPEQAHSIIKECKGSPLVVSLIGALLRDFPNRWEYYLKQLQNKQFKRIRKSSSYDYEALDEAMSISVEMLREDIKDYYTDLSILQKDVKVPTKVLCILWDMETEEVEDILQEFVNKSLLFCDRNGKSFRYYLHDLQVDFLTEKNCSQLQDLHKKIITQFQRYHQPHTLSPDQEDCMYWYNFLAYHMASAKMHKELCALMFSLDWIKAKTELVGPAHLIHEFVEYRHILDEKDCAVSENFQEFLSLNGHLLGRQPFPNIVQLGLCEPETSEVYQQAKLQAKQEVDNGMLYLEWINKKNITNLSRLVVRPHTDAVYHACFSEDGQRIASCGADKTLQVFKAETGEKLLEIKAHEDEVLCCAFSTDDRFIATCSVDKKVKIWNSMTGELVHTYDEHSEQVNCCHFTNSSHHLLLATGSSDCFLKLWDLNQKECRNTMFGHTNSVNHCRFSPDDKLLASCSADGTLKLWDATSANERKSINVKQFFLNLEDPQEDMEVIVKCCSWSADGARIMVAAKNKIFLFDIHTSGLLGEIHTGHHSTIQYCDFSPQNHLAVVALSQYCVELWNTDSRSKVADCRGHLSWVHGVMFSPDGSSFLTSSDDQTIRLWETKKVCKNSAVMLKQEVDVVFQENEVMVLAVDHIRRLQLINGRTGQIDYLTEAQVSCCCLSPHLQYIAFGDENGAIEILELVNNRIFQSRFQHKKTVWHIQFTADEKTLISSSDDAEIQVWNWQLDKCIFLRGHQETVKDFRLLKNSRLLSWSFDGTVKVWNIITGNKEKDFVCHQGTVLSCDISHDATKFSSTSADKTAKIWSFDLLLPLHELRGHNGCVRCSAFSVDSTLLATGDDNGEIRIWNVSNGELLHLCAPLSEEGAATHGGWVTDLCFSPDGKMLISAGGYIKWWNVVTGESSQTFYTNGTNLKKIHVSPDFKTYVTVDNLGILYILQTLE
Format: functional.

Assay [2] has as its target T2, Adenosylmethionine-8-amino-7-oxononanoate aminotransferase (Mycobacterium tuberculosis, UniProt P9WQ81).
T2 sequence (P9WQ81 whole entry): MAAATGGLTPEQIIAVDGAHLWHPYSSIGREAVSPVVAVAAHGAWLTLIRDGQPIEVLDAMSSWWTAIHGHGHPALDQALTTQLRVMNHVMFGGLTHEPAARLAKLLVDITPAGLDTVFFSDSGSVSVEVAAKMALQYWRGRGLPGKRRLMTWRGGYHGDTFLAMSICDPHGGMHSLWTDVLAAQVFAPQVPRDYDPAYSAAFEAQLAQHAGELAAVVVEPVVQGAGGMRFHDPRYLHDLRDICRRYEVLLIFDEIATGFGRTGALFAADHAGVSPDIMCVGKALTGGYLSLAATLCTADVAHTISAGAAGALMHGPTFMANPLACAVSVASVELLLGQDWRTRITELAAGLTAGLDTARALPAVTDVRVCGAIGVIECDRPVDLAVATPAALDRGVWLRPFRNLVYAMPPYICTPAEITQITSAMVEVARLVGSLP
Briefly: Mycobacterium tuberculosis BioA enzyme inhibitor Measured in Biochemical System Using Plate Reader - 2163-02_Inhibitor_Dose_CherryPick_Activity. Format: functional, Mycobacterium tuberculosis UT205.

For assay [3], the target named is T3, Endoribonuclease toxin MazF (Escherichia coli K-12, UniProt P0AE70).
T3 sequence (P0AE70 whole entry): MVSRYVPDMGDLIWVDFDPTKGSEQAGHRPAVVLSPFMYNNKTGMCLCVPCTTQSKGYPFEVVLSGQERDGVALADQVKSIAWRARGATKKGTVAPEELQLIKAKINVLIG
Briefly: activation of MazEF endoribonuclease cleavage – biochemical, fluorescence, single-stranded RNA substrate, uHTS hits, dose response (AID 588481). Format: functional.

The target in assay [4] is T3, Endoribonuclease toxin MazF. Put plainly: substrate-only fluorescence increase artefacts – biochemical, single-stranded RNase substrate, counter-screen for MazEF activator project, dose response (AID 588502). It counts as functional. A general note: Counterscreens check selectivity or assay interference.
For a further assay, the target named is T4, CAAX prenyl protease 2 (Saccharomyces cerevisiae S288c, UniProt Q03530).
T4 sequence (Q03530 whole entry): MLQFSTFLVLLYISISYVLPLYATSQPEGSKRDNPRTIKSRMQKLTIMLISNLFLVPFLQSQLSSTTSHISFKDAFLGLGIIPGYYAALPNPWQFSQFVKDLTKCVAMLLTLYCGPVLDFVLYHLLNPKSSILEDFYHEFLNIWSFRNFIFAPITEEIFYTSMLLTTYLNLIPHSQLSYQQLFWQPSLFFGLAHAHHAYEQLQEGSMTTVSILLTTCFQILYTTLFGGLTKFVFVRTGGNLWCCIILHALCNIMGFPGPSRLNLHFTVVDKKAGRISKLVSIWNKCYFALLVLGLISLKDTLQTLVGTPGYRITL
Format: biochemical.

Assay [5] in a line: HEK-293T viability loss after treatment – luminescence, T-cell screen hits, cytotoxicity control for TCR NF-kB inhibitor project, dose response (AID 489026).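 Further: cells exposed to compound about 14 hours before the viability readout.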 Format: functional, cell-based.
The target of the next assay is T5, Coagulation factor XII (Homo sapiens, UniProt P00748).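 Further: activated factor XIIa alpha cleaving a fluorogenic AMC peptide substrate; inhibitor potency from loss of enzyme activity.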
T5 sequence (P00748 whole entry): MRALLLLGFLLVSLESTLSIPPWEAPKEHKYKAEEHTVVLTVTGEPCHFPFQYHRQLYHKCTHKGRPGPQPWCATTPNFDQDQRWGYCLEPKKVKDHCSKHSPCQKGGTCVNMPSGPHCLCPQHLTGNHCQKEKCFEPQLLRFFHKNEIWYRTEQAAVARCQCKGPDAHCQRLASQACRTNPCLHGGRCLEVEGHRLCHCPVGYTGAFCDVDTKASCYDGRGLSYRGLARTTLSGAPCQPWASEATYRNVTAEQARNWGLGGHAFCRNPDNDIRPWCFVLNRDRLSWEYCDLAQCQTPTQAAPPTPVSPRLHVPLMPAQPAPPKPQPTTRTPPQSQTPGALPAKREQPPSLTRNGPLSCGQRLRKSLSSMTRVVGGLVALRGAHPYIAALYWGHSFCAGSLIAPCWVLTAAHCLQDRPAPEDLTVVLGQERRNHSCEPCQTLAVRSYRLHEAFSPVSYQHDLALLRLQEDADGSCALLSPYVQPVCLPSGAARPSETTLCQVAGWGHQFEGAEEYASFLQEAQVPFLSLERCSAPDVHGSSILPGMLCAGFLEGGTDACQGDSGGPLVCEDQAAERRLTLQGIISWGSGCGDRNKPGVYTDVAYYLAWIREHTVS
Format: functional.

For assay [6], the target named is T6, Zinc finger protein mex-5 (Caenorhabditis elegans, UniProt Q9XUB2).
T6 sequence (Q9XUB2 whole entry): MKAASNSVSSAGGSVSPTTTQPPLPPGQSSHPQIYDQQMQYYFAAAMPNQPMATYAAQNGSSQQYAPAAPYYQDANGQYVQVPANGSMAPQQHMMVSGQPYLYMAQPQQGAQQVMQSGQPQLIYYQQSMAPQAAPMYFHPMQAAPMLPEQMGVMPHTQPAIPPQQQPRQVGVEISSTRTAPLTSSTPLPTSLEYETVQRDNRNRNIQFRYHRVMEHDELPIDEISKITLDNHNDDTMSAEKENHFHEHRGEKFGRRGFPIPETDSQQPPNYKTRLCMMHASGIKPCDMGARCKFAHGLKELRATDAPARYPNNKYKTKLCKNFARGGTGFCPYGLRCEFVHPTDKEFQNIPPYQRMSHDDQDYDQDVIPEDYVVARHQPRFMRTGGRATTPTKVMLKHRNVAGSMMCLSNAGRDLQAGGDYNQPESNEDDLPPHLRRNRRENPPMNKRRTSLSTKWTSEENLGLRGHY
Briefly: potency of MEX-5 RNA-binding blockers – biochemical, C. elegans, fluorescence polarization, dose response (AID 1960).

The target in assay [7] is T7, RNA-binding protein pos-1 (Caenorhabditis elegans, UniProt G5EF15).
T7 sequence (G5EF15 whole entry): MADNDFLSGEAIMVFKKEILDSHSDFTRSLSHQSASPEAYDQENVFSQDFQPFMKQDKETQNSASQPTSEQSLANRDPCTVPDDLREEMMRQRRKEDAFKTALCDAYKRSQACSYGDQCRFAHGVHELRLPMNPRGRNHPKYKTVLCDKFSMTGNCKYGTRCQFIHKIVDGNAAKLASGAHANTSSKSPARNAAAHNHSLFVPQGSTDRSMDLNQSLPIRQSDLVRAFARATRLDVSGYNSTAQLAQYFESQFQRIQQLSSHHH
Put plainly: disruptors of C. elegans POS-1 RNA interaction – biochemical, fluorescence polarization, dose response (AID 1964).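 Further: purified POS-1 fused to maltose binding protein made in E. coli; potency of compounds blocking POS-1 binding to fluorescent RNA.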 In general terms: Polarisation of emitted light reports the rotation of a fluorescent probe.

Assay [8] is described as follows: microbe, parasite or virus in culture. The following applies: Mycobacterium tuberculosis. Format: functional.
A further assay deals with Genome polyprotein (dengue virus type 2, UniProt P29990). Put plainly: flavivirus cap methylation enzyme inhibition – biochemical, confirmation dose response, primary screen (AID 588689). Format: functional.
The target in assay [9] is T8, Microphthalmia-associated transcription factor (Homo sapiens, UniProt O75030).
T8 sequence (O75030 whole entry): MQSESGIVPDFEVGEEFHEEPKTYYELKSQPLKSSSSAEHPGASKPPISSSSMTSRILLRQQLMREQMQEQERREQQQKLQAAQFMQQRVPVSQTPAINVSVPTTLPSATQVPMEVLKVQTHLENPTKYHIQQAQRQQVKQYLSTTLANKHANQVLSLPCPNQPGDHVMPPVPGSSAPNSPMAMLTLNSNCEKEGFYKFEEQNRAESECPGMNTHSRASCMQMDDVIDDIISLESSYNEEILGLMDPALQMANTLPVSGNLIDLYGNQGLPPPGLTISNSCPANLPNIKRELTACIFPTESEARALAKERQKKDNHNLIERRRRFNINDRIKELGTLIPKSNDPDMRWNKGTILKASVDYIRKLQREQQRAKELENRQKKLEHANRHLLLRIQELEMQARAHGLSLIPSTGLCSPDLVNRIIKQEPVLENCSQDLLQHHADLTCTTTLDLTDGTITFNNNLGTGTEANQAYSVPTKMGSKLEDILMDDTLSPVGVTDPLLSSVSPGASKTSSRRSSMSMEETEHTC
Briefly: reducers of TRPM1 reporter luminescence, concentration series – cell-based, SK-MEL-5, cherry-picked, set 3, MITF inhibitor project, dose response (AID 493073).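 Further: SK-MEL-5 melanoma cells with luciferase driven by the MITF target TRPM1 promoter.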 Format: functional.

For assay [10], the target named is Luciferin 4-monooxygenase (Photinus pyralis, UniProt P08659). Put plainly: inhibition of purified Photinus pyralis luciferase – biochemical, luminescence, dose response (AID 1891).
For another assay, the target named is Paired box protein Pax-8 (Homo sapiens, UniProt Q06710). Put plainly: PAX8 transcriptional activity inhibition in RMG-I – RMG-I cells, luciferase, cherry-pick, dose response (AID 687027).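 Further: luciferase reporter driven by Pax8 target thyroperoxidase promoter measured by SteadyGlo luminescence.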 It counts as functional, cell-based.
Assay [11] has as its target Cyclin-dependent kinase 5/CDK5 activator 1 (Homo sapiens, UniProt Q00535). Put plainly: blockade of human CDK5 activity – biochemical, cherry-picked samples, set 2, dose response (AID 504545).

The source made the active and inactive calls.

Sequence of Cyclin-dependent kinase 5/CDK5 activator 1 (Q00535 whole entry): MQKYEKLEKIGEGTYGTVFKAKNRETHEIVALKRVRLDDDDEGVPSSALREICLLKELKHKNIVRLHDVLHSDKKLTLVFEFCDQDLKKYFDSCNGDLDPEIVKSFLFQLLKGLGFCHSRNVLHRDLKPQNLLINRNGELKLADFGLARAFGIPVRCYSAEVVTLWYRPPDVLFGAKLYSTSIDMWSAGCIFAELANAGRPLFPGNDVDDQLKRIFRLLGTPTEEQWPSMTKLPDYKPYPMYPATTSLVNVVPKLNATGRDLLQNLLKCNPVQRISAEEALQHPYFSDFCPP
Sequence of Cyclin-dependent kinase 5/CDK5 activator 1 (Q15078 whole entry, further chain): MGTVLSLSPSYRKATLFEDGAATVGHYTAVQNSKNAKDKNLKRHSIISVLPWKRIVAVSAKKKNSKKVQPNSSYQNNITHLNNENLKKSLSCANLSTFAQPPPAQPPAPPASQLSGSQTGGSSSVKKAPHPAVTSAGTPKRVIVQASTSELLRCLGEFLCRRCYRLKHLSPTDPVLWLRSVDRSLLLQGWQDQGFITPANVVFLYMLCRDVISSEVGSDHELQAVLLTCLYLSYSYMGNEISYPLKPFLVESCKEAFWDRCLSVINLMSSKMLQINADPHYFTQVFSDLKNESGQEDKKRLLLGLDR
Sequence of Genome polyprotein (P29990 2492-3391 limits assumed): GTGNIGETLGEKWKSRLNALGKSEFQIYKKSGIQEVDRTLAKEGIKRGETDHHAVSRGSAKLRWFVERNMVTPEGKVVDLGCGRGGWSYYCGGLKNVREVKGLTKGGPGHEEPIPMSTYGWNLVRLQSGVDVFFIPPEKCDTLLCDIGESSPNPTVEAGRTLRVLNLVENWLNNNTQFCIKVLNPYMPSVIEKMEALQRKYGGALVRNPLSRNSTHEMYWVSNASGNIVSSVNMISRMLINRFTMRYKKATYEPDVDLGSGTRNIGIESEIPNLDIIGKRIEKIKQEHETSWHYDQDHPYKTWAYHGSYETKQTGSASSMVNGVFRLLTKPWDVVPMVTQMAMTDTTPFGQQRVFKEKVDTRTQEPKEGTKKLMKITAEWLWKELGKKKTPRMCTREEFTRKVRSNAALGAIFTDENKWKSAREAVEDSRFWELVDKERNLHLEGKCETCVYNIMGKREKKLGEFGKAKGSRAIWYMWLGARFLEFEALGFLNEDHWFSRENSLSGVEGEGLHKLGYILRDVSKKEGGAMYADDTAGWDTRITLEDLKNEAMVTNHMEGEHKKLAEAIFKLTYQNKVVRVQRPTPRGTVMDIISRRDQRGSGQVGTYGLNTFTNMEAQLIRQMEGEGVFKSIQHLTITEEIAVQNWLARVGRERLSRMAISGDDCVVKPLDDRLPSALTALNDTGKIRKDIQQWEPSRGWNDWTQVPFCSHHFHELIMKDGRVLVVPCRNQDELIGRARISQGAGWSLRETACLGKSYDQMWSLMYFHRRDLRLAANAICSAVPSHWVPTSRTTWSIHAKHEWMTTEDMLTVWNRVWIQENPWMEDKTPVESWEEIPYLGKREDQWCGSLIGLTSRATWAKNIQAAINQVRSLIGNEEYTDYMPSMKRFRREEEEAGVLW
Sequence of Paired box protein Pax-8 (Q06710 whole entry): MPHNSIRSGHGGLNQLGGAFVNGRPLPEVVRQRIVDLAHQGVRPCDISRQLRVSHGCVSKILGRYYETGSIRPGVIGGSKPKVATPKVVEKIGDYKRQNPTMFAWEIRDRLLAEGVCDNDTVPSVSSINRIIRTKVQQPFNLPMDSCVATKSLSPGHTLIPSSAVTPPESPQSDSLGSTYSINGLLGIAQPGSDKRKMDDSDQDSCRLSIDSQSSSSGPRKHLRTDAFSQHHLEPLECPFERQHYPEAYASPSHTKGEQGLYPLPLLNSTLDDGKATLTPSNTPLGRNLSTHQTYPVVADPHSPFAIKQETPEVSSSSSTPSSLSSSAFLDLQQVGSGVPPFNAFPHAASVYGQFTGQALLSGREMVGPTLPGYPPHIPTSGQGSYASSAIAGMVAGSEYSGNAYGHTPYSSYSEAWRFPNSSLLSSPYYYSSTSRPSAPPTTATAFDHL
Sequence of Luciferin 4-monooxygenase (P08659 whole entry): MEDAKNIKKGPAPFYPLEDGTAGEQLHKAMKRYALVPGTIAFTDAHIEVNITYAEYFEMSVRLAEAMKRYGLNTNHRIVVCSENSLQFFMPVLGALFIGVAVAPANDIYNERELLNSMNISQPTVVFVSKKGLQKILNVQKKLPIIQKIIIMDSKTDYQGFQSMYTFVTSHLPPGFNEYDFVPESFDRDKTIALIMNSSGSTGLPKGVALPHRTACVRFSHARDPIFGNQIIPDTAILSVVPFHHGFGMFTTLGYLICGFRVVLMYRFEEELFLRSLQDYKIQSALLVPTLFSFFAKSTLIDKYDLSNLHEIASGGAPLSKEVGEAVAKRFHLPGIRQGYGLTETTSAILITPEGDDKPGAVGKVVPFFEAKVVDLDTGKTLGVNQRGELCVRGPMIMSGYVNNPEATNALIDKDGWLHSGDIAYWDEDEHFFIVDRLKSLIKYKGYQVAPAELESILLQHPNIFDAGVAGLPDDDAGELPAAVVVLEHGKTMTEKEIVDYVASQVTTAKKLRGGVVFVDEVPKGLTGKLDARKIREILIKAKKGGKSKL

In the case of `COc1ccc(OCCNc2c([N+](=O)[O-])c(=O)oc3ccccc23)cc1`, in assay [1], the IC50 is 4.61 µM (active). As for `COc1cc(C(=O)N2Cc3cc4ccccc4nc3C2C)cc(OC)c1OC` (stereo not given), in [2], the half-maximal activity concentration (AC50) is 2.01 µM (active). As to `Cc1ccc(C(=O)Nc2cccc(C(=O)N/N=C/c3ccc(F)cc3)c2)cc1`, the EC50 in assay [3] is 41.1 µM (inactive); in assay [4] it was > 99 µM (inactive).

As for `Oc1ccc(-c2nc3ccccn3c2NCc2ccc3c(c2)OCO3)cc1`, the AC50 at CAAX prenyl protease 2 is 27.7 µM (active). Regarding `COc1cc2c(cc1O)CC[C@@H]1[C@@H]2CC[C@]2(C)[C@@H](O)CC[C@@H]12` [2-METHOXYESTRADIOL], the IC50 in assay [5] is > 80 µM (inactive). On to `CN(C(=O)Oc1cccc2cccnc12)c1ccccc1`, for which the IC50 at Coagulation factor XII is > 50 µM (inactive). On to `COc1ccc(N/C=C\C(=O)c2ccc(C)cc2)cc1OC`, for which the 50% effective concentration (EC50) in assay [6] was > 300 µM (not active); in assay [3] it was > 99 µM (inactive); in assay [7], > 300 µM (not active); in [4], 25 µM (inactive). For the molecule `CCOC(=O)c1cc2c(O)nccc2nc1C`, at CAAX prenyl protease 2, the AC50 is 10.3 µM (active). For the molecule `CC(C)OC(=O)/C(C#N)=C/c1ccc(-c2ccc(SC(F)F)cc2)o1`, the EC50 in assay [3] was > 99 µM (inactive); in [4] it was 11.9 µM (active). In assay [8], the CC50 is > 40 µM (active). For `COC(=O)CCC(=O)OC1(C)C(=O)C2=CN(CC3CC3)C(c3ccc(OC)cc3)=CC2=C(Br)C1=O` (stereo not given), the values for the IC50 (in assay [1]; on Genome polyprotein) were 31.7 µM (active) and 30.5 µM (active), respectively.

As for `CCOC(=O)Cn1/c(=N/C(=O)c2ccc([N+](=O)[O-])s2)sc2ccccc21`, the EC50 in [3] and in [4] was > 99 µM (inactive) throughout. Besides, the AC50 in assay [9] was 3.5 µM (active). Consider `COc1cc(-c2noc(C)c2C#Cc2ccsc2)cc(OC)c1OC`, for which the IC50 in assay [5] is > 80 µM (inactive).

`COc1ccc(C(=O)ON=C(N)c2ccccn2)cc1`: the EC50 in assay [10] was 1.47 µM (active). For the same molecule, the concentration at half-maximal activity (AC50) was 8.88 µM (active) on Paired box protein Pax-8 and 12.6 µM (active) in [11].

For `O=C(NCCN1C(=O)C2C3C=CC(C3)C2C1=O)Nc1ccccc1` (stereo not given), the IC50 on Coagulation factor XII is > 50 µM (inactive).

One may read the IC50 as the point on the concentration scale where inhibition reaches its midpoint. Broadly, the AC50 is the midpoint of the concentration-response curve, whichever way the signal moves. One may read the EC50 as the concentration at which the effect is half-maximal.
